Drawing on patent US20080076808A1, “SKIN COMPOSITION” (MARS INCORPORATED, priority 2003, published 2008), this text covers epidermal ceramide synthesis for 4 compounds.

Read-outs that look alike come from different tables or passages of the source.

For assay [1], the system named is canine keratinocytes. The assay is described as follows: In vitro ceramide synthesis assay (14C-serine incorporation). Format: cell-based. As to conditions: stated as 'has been shown'; FIGS. 2, 3, 7, 8. The method, then:
Canine keratinocytes were obtained via explant culture of skin samples taken from healthy adult animals (4 mm biopsy). Samples are washed and dissected in cold PBS containing antibiotics. The epidermis is dissected away from the dermis and cut into 1 mm^2 pieces. The pieces of epidermis are then placed into individual wells of a 24 well collagen-coated plastic plate and briefly allowed to dry down (60 seconds). Green's medium supplemented with 10% fetal bovine serum is then added and the explants cultured for 7-10 days until keratinocytes begin growing out of the edges of the skin. The primary skin cells are now detached from the plastic and explant tissue using trypsin and moved onto a i3T3 (irradiated fibroblast) feeder layer. Cells are expanded on the feeder layer until near confluent at which time they can be moved onto plastic alone. The primary keratinocytes can be used for assays at this point or further expanded in number as required. Keratinocytes are seeded in collagen-coated 24 well plates at a density of 5×10^4 cells per well. These cells are allowed to settle overnight and then the media changed. Cells are then left for 4 days under proliferation promoting culture conditions (in the presence of bovine pituitary extract). Following the 4 days the media is changed to one that promotes differentiation and at this stage the supplement to be tested is added (see individual experiments). Following 6 days under these conditions [^14C]-Serine is added for the ceramide assay or [^14C]-Acetate added for the total lipid assay, in both cases at 0.5 microCi per well. Cells are incubated in the presence of the radioactive markers and supplement for 2 days. At the end of the incubation period cells were harvested using trypsin and washed using PBS. Lipids were subsequently extracted using Bligh-Dyer solution and then added to 4 ml of scintillation fluid. The radioactivity was counted with a liquid scintillation spectrometer. Results for the ceramide synthesis assays are seen in FIGS. 1-6. Results for total lipid synthesis assays are seen in FIGS. 7-8. […]

For assay [2], the system named is canine keratinocytes. As to conditions: stated as 'known to'; FIG. 5; cited from earlier work.

Consider `N[C@@H](Cc1c[nH]cn1)C(=O)O` [Histidine, histidine], for which, in assay [1], the epidermal ceramide synthesis entry is reported as “increase”.

For the compound `NC(=O)c1cccnc1` [Nicotinamide, nicotinamide], the epidermal ceramide synthesis entry in assay [1] is on record as “increase”.

On to `O=C(O)[C@@H]1CCCN1` [Proline, proline], for which the epidermal ceramide synthesis entry in assay [1] is given as “increase”.

For `Cc1ncc(CO)c(CO)c1O` [Pyridoxine, pyridoxine], in assay [2], the epidermal ceramide synthesis result is “increase”.
